In ChEMBL document CHEMBL4000203, “Green synthesis and anticancer potential of chalcone linked-1,2,3-triazoles” (Eur J Med Chem, 2017):

Assays:
MCF7 [1] = assay: Cytotoxicity against human MCF7 cells assessed as growth inhibition at 10 uM measured after 48 hrs by MTT assay relative to control; format: functional; details: MCF7, 48 h, read-out: GI
MIA PaCa-2 [2] = assay: Cytotoxicity against human MIAPaCa2 cells assessed as growth inhibition at 10 uM measured after 48 hrs by MTT assay relative to control; format: functional; details: MIA PaCa-2, 48 h, read-out: GI
A549 [3] = assay: Cytotoxicity against human A549 cells assessed as growth inhibition at 10 uM measured after 48 hrs by MTT assay relative to control; format: functional; details: A549, 48 h, read-out: GI
HepG2 [4] = assay: Cytotoxicity against human HepG2 cells assessed as growth inhibition at 10 uM measured after 48 hrs by MTT assay relative to control; format: functional; details: HepG2, 48 h, read-out: GI
[5] = Cytotoxicity against human FR2 cells assessed as growth inhibition at 10 uM measured after 48 hrs by MTT assay relative to control; format: cell-based; details: FR2 cells, read-out: GI
MCF7 [6] = assay: Cytotoxicity against human MCF7 cells measured after 48 hrs by MTT assay; format: functional, cell-based; details: MCF7, 48 h
MIA PaCa-2 [7] = assay: Cytotoxicity against human MIAPaCa2 cells measured after 48 hrs by MTT assay; format: functional, cell-based; details: MIA PaCa-2, 48 h
A549 [8] = assay: Cytotoxicity against human A549 cells measured after 48 hrs by MTT assay; format: functional, cell-based; details: A549, 48 h
HepG2 [9] = assay: Cytotoxicity against human HepG2 cells measured after 48 hrs by MTT assay; format: functional, cell-based; details: HepG2, 48 h
[10] = Cytotoxicity against human FR2 cells measured after 48 hrs by MTT assay; format: cell-based; details: FR2, 48 h
[11] = Selectivity index, ratio of IC50 for human FR2 cells to IC50 for human MCF7 cells; format: functional
[12] = Selectivity index, ratio of IC50 for human FR2 cells to IC50 for human MIAPaCa2 cells; format: functional
MIA PaCa-2 [13] = assay: Cell cycle arrest in human MIAPaCa2 cells assessed as apoptotic cells at 10 uM measured after 24 hrs by propidium iodide staining based flow cytometric analysis (reference value: 1%); format: functional
MIA PaCa-2 [14] = assay: Cell cycle arrest in human MIAPaCa2 cells assessed as accumulation at G1 phase at 10 uM measured after 24 hrs by propidium iodide staining based flow cytometric analysis (reference value: 59%); format: functional
MIA PaCa-2 [15] = assay: Cell cycle arrest in human MIAPaCa2 cells assessed as accumulation at G2 phase at 10 uM measured after 24 hrs by propidium iodide staining based flow cytometric analysis (reference value: 5%); format: functional
MIA PaCa-2 [16] = assay: Cell cycle arrest in human MIAPaCa2 cells assessed as accumulation at S phase at 10 uM measured after 24 hrs by propidium iodide staining based flow cytometric analysis (reference value: 36%); format: functional
MIA PaCa-2 [17] = assay: Cell cycle arrest in human MIAPaCa2 cells assessed as apoptotic cells at 30 uM measured after 24 hrs by propidium iodide staining based flow cytometric analysis (reference value: 1%); format: functional
MIA PaCa-2 [18] = assay: Cell cycle arrest in human MIAPaCa2 cells assessed as accumulation at G1 phase at 30 uM measured after 24 hrs by propidium iodide staining based flow cytometric analysis (reference value: 59%); format: functional
MIA PaCa-2 [19] = assay: Cell cycle arrest in human MIAPaCa2 cells assessed as accumulation at G2 phase at 30 uM measured after 24 hrs by propidium iodide staining based flow cytometric analysis (reference value: 5%); format: functional
MIA PaCa-2 [20] = assay: Cell cycle arrest in human MIAPaCa2 cells assessed as accumulation at S phase at 30 uM measured after 24 hrs by propidium iodide staining based flow cytometric analysis (reference value: 36%); format: functional
MIA PaCa-2 [21] = assay: Cell cycle arrest in human MIAPaCa2 cells assessed as apoptotic cells at 50 uM measured after 24 hrs by propidium iodide staining based flow cytometric analysis (reference value: 1%); format: functional
MIA PaCa-2 [22] = assay: Cell cycle arrest in human MIAPaCa2 cells assessed as accumulation at G1 phase at 50 uM measured after 24 hrs by propidium iodide staining based flow cytometric analysis (reference value: 59%); format: functional
MIA PaCa-2 [23] = assay: Cell cycle arrest in human MIAPaCa2 cells assessed as accumulation at G2 phase at 50 uM measured after 24 hrs by propidium iodide staining based flow cytometric analysis (reference value: 5%); format: functional
MIA PaCa-2 [24] = assay: Cell cycle arrest in human MIAPaCa2 cells assessed as accumulation at S phase at 50 uM measured after 24 hrs by propidium iodide staining based flow cytometric analysis (reference value: 36%); format: functional
MIA PaCa-2 [25] = assay: Cell cycle arrest in human MIAPaCa2 cells assessed as apoptotic cells measured after 24 hrs by propidium iodide staining based flow cytometric analysis; format: functional
MIA PaCa-2 [26] = assay: Induction of mitochondrial membrane depolarization in human MIAPaCa2 cells measured after 24 hrs by […] staining based flow cytometric analysis; format: functional, cell-based
MIA PaCa-2 [27] = assay: Induction of mitochondrial membrane depolarization in human MIAPaCa2 cells at 10 uM measured after 24 hrs by […] staining flow cytometric analysis (reference value: 2%); format: functional
MIA PaCa-2 [28] = assay: Induction of mitochondrial membrane depolarization in human MIAPaCa2 cells at 30 uM measured after 24 hrs by […] staining flow cytometric analysis (reference value: 2%); format: functional
MIA PaCa-2 [29] = assay: Induction of mitochondrial membrane depolarization in human MIAPaCa2 cells at 50 uM measured after 24 hrs by […] staining flow cytometric analysis (reference value: 2%); format: functional
MIA PaCa-2 [30] = assay: Induction of apoptosis in human MIAPaCa2 cells assessed as activation of procaspase-9 measured after 24 hrs by Western blot analysis; format: functional, cell-based
MIA PaCa-2 [31] = assay: Induction of apoptosis in human MIAPaCa2 cells assessed as activation of procaspase-8 measured after 24 hrs by Western blot analysis; format: functional, cell-based
MIA PaCa-2 [32] = assay: Induction of apoptosis in human MIAPaCa2 cells assessed as increase in casapase-3 cleavage measured after 24 hrs by Western blot analysis; format: functional, cell-based
MIA PaCa-2 [33] = assay: Induction of apoptosis in human MIAPaCa2 cells assessed as increase in PARP-1 cleavage measured after 24 hrs by Western blot analysis; format: functional, cell-based

COc1ccc(C(=O)/C=C/c2ccc(OCc3cn(Cc4ccccc4)nn3)cc2)cc1
inhibition of growth at 10 µM (MCF7 [1]): 70%
inhibition of growth at 10 µM (MIA PaCa-2 [2]): 68%
inhibition of growth at 10 µM (A549 [3]): 44%
inhibition of growth at 10 µM (HepG2 [4]): 51%
inhibition at 48 h, 10 µM [5]: 6%
IC50 (MCF7 [6]): 5 µM
IC50 (MIA PaCa-2 [7]): 4 µM
IC50 (A549 [8]): 11 µM
IC50 (HepG2 [9]): 9 µM
IC50 [10]: > 100 µM
Ratio IC50 [11]: >20
Ratio IC50 [12]: 25
Activity (MIA PaCa-2 [13]): 2%
Activity (MIA PaCa-2 [14]): 36%
Activity (MIA PaCa-2 [15]): 11%
Activity (MIA PaCa-2 [16]): 53%
Activity (MIA PaCa-2 [17]): 6%
Activity (MIA PaCa-2 [18]): 52%
Activity (MIA PaCa-2 [19]): 14%
Activity (MIA PaCa-2 [20]): 44%
Activity (MIA PaCa-2 [21]): 11%
Activity (MIA PaCa-2 [22]): 41%
Activity (MIA PaCa-2 [23]): 8%
Activity (MIA PaCa-2 [24]): 51%
Activity (MIA PaCa-2 [25]): Dose-dependent effect
Activity (MIA PaCa-2 [26]): Dose-dependent effect
Activity (MIA PaCa-2 [27]): 4%
Activity (MIA PaCa-2 [28]): 8%
Activity (MIA PaCa-2 [29]): 11%
Activity (MIA PaCa-2 [30]): Dose-dependent effect
Activity (MIA PaCa-2 [31]): Dose-dependent effect
Activity (MIA PaCa-2 [32]): Dose-dependent effect
Activity (MIA PaCa-2 [33]): Dose-dependent effect
